From a melting point compilation (Tetko et al.; mined from patent text by program, amines drawn as free bases though some values may be those of a salt)

SMILES	melting point [°C]
COc1cccc(-n2c(-c3sc(NC(=O)c4ccccc4)nc3-c3ccccc3)nc3ccccc3c2=O)c1	195 to 196
CCOC(=O)C=CC(=O)N(CC(C)(C)C)c1sc(Cl)cc1C(=O)c1ccccc1Cl	79 to 81
COc1cc(N)c(Cl)cc1C(=O)NC1CCN(C(C)CC(C(=O)N(C)C)(c2ccccc2)c2ccccc2)CC1OC (centres undefined)	198
Cc1nnc(-c2sc(N3CCN(Cc4ccc(F)cc4)C3=O)nc2C)[nH]1	248 to 249
Cc1ccccc1C(CCC(=O)O)Oc1cc(OCc2cccc(C(=O)O)c2)ccc1[N+](=O)[O-] (racemic)	85 to 87
O=C(Nc1nn[nH]n1)c1cnc(N2CCOCC2)nc1OC1CCCCCC1	287
NCCON=C1c2ccccc2C2CC2c2ccccc21 (centres undefined)	133 to 134
CCc1cc(Oc2ccc(C(F)(F)F)cc2[N+](=O)[O-])nn1C(=O)NC	89 to 91
COc1ccc(-n2nc(Sc3ccc(Cl)cc3)c(C)c(C#N)c2=O)cc1	146 to 148
Cc1ccc(-c2nc(O)c(C)s2)cc1	172 to 174
O=c1oc2cc(Cl)cnc2n1CO	137 to 139
CCc1cn(C2CC(O)C(CNCc3ccccc3)O2)c(=O)[nH]c1=O (centres undefined)	121 to 124
COCCN1CCc2ccc(OC)c(Nc3ncc(Cl)c(Nc4ccc(N5CCOCC5)cc4OC)n3)c2CC1	68 to 80
CN1CCc2ccccc2C(c2ccccc2)C1(C)C (centres undefined)	92 to 93
CC1(C)C(=O)N(c2ccc([N+](=O)[O-])c(C(F)(F)F)c2)C(=O)N1CCOCCN1C(=O)N(c2ccc([N+](=O)[O-])c(C(F)(F)F)c2)C(=O)C1(C)C	186 to 188
COc1ccc2c3c(c(=O)oc2c1)CN(Cc1ccc([N+](=O)[O-])cc1)CC3	176 to 178
CC(=O)NCCC(=O)Nc1cccc(-c2cc(-c3ccc(Cl)cc3O)nc(NC(=O)c3cccs3)c2C#N)c1	209 to 210

SMILES	melting point [°C]
Clc1cc2nc(NC3=NCCN3)[nH]c2cc1Cl	265 to 272
CCC(C)n1c2ccccc2c2ccccc21 (centres undefined)	62 to 63
O=C1NCC(Cc2ccccc2-c2ccccc2)O1 (centres undefined)	146 to 148
CC(=O)OC1=C(c2nnn(Cc3ccccc3)n2)N(C)S(=O)(=O)c2ccccc21	173
Cn1cc(-c2cccc(N3CCc4c(sc5c4CCCC5)C3=O)c2CO)cc(Nc2ccc(C3CNC3)cn2)c1=O	140 to 142
NC(=O)c1ccc(-c2cnc3[nH]c(=O)n(CC4CCOCC4)c3n2)cc1	273 to 275
C=CCn1c(C)nc2c1CC(C(=O)OCC)CC2=O (centres undefined)	95 to 97
CCOC(=O)CNC(=O)N(CC(=O)OCC)Cc1ccccc1	64 to 65
O=C(N[C@H]1CN2CCC1CC2)C(Cc1ccccc1)c1ccccc1 (some centres undefined)	142
Cc1cc([N+](=O)[O-])c(Cl)c([N+](=O)[O-])c1S(=O)(=O)Cl	105 to 107
COc1ccc2[nH]cc(CC(C)(C)[N+](=O)[O-])c2c1	83 to 85
O=C1NCC(c2ccc(F)cc2)N1CCCCS (centres undefined)	102 to 104
O=C(Nc1ccc2c(c1)CCSC2)OCc1ccccc1	116 to 118
Cc1nc2c(s1)-c1nc(Nc3ccc(Cl)nc3)ncc1CC2	252 to 253
CC(=O)NCc1ncc(-n2nc(C)cc2C)nc1Nc1ccc(Cl)cc1	228 to 230
CCOC(=O)c1cc(=O)c2cc(Oc3ccccc3)c(NS(C)(=O)=O)cc2o1	155 to 156

Now from value to compound:

melting point [°C]	SMILES
167 to 168	Clc1cc(-c2c(-c3ccccc3)nn3ccccc23)ccn1
189 to 195	COc1ccc2[nH]cc(/C=C/c3cc(/C=C/c4ccc(OCc5ccccn5)cc4OC)[nH]n3)c2c1
104 to 106	Cc1nc2ccc3c(c2o1)C(CCNC(=O)C(F)(F)F)CC3 (centres undefined)
< 80	CCOC(=O)CC1(CC)OCCc2c1[nH]c1ccccc21 (centres undefined)
95.5 to 96.5	CSC(=C[N+](=O)[O-])NCCSCc1ccccn1
204 to 205	C[C@H](NC(=O)[C@@H](C)NC(=O)[C@@H](N)CC(=O)O)C1CCCC1
114 to 116	O=S(=O)(Nc1cccc(CCOCc2csc(-c3ccc(Cl)cc3)n2)c1)C(F)(F)F
256 to 258	CS(=O)(=O)c1ccc(C[C@@H](N)[C@H](O)C(=O)C2(C(=O)O)CC2N)cc1 (some centres undefined)
94	C=CCOC(=O)c1c(C)nc2c(c1N)c1ccccc1n2C
122 to 124	N#CC1(c2ccc(C(F)(F)F)cc2)C2CC3CC(C2)CC1C3 (centres undefined)
200 to 202	CN(C)c1ncc(CN2C(=O)C3(COc4cc5c(cc43)OCO5)c3ccccc32)s1 (centres undefined)
142 to 143	Cc1cccc2sc(-n3nc(CCC(=O)N(C)O)cc3-c3ccsc3)nc12
71.6	C#CCOc1cc(Oc2cccc(Cl)c2)ncn1
116 to 118	Cc1noc(NS(=O)(=O)c2ccccc2N)c1C
194 to 196	CC(=O)CCCn1c(C)nc2c(N)nc3ccccc3c21
145 to 149	CC(C)Cn1c(C(C)O)nc2c(N)nc3ccccc3c21 (centres undefined)
72 to 76	Clc1cc2c(cc1CN1CCN(CCOc3ccccc3)CC1)OCO2
239	CS(=O)(=O)c1ccc(CN2CCN(C(=O)N3CCC(c4cn[nH]c4)C3)c3ccccc32)cc1 (centres undefined)

melting point [°C]	SMILES
187 to 188	Cc1c(CO)c2c(c(C)c1NC(=O)NC(C)(C)C)C(c1ccc(C(C)C)cc1)CO2 (single isomer, unassigned; (+))
81 to 83	Cn1ncc(C(=O)c2ccc(Cl)cc2Cl)c1Cl
235 to 238	CCOC(=O)CCCCCOC(=O)c1c(I)c(NC(C)=O)c(I)c(NC(C)=O)c1I
130 to 134	CC(C)n1c(-c2ccccc2)nc(-c2ccc(F)cc2)c1C=O
115 to 117	Cc1ccccc1CC(=O)c1cccc(I)c1
115	O=C(O)COCCN(C1CC1)S(=O)(=O)c1ccccc1Cl
137 to 138	CC(C)Oc1cc(NC(=O)C2=C(C(=O)N(C)C)CCCC2)ccc1Br
78	Cc1cc(C2CCCC2)c(O)c(C2CCCC2)c1
159 to 162	Cc1ccc(C(=O)/C=C/C(=O)O)o1
158	COc1cc(C)c2c(=O)c3c(OC)cccc3oc2c1OC
150	COc1ccc(-c2nc(CCCCCC(C#N)C(=O)O)oc2-c2ccc(OC)cc2)cc1 (centres undefined)
82 to 84	COc1cc(I)c(C(=O)N(c2ccnc3cc4c(cc23)OCO4)C(C)CN(C)C)cc1OC (centres undefined)
68 to 70	CC(NC(C)CN(CC(C)NC(C)=C1C(=O)CC(C)(C)CC1=O)C(=O)/C=C\C(=O)O)=C1C(=O)CC(C)(C)CC1=O (centres undefined)
145 to 146	COc1ccc(-n2nc3c(cc2=O)CCSc2sc(C)cc2-3)cc1
189 to 191	CCCc1ccnc(C(=O)c2[nH]c3cc(Cl)ccc3c2CC(=O)O)c1
146 to 149	CC(C)CN1C(=O)[C@@H](CC(=O)O)O[C@H](c2ccccc2OC(C)C)c2cc(Cl)ccc21 (relative stereo)
87.3 to 91.1	C=CCOc1cc(OC(=S)N2CCCC2)ccc1Cl
72 to 73	CC1CCN(CCCC(=O)c2ccc3oc4ccc(C(=O)CCCN5CCC(C)CC5)cc4c3c2)CC1
